{"source": "paper PMC7317746", "about": "(Environmental and Molecular Mutagenesis, 2020)", "key": {"[1]": {"tested_on": "peripheral blood cells", "experiment": "Comet assay, peripheral blood cells", "assay_type": "in vivo, rat"}, "[2]": {"tested_on": "male Sprague Dawley rats", "experiment": "Micronucleus assay in peripheral blood erythrocytes", "assay_type": "in vivo, rat"}, "[3]": {"tested_on": "male Sprague Dawley rats", "settings": "1-Month Study, 1,000 mg/kg/day"}, "[4]": {"tested_on": "liver cells", "experiment": "Comet assay, liver cells", "assay_type": "in vivo, rat"}, "[5]": {"tested_on": "bacteria, in vitro mammalian cell and in vivo transgenic rat assays", "settings": "ref IARC, 1990, Bergman et al., 1996; cited from earlier work"}, "[6]": {"tested_on": "male Sprague Dawley rats", "experiment": "Pig‐a assay", "assay_type": "in vivo, rat"}, "[7]": {"settings": "1-Month Study, 250 mg/kg/day, Day 29"}, "[8]": {"settings": "1-Month Study, 500 mg/kg/day, Day 29"}, "[9]": {"settings": "1-Month Study, 1,000 mg/kg/day, Day 29"}, "[10]": {"settings": "3-Day Study, 500 mg/kg/day, Day 3"}, "[11]": {"settings": "3-Day Study, 1,000 mg/kg/day, Day 3"}, "[12]": {"settings": "3-Day Study, 2,000 mg/kg/day, Day 3"}, "[13]": {"settings": "1-Month Study, 250 mg/kg/day, Day 4"}, "[14]": {"settings": "1-Month Study, 500 mg/kg/day, Day 4"}, "[15]": {"settings": "3-Day Study, 500 mg/kg/day, Day 4"}, "[16]": {"settings": "≤1,000 mg/kg/day, up to 29 days"}, "[17]": {"settings": "1-Month Study, 250 mg/kg/day, Day 15"}, "[18]": {"settings": "1-Month Study, 250 mg/kg/day, Day -1 (pre-treatment)"}, "[19]": {"settings": "1-Month Study, 500 mg/kg/day, Day 15"}, "[20]": {"settings": "1-Month Study, 500 mg/kg/day, Day -1 (pre-treatment)"}, "[21]": {"settings": "1-Month Study, 1,000 mg/kg/day Days 1-29, Day 57 recovery group"}}, "note": "Read-outs that look alike come from different tables or passages of the source. Marks after values point to notes of the source that are not given here.", "data": [{"smiles": "CC(=O)Nc1ccc(O)cc1", "note": "[acetaminophen, Acetaminophen]", "values": [{"measurement": "Blood % tail intensity mean ± SD", "setting": "[1]; [7]", "result": "0.13 ± 0.08", "unit": "%"}, {"measurement": "Blood % tail intensity mean ± SD", "setting": "[1]; [8]", "result": "0.19 ± 0.10", "unit": "%"}, {"measurement": "Blood % tail intensity mean ± SD", "setting": "[1]; [9]", "result": "0.24 ± 0.15", "unit": "%"}, {"measurement": "Blood % tail intensity mean ± SD", "setting": "[1]; [10]", "result": "0.31 ± 0.11", "unit": "%"}, {"measurement": "Blood % tail intensity mean ± SD", "setting": "[1]; [11]", "result": "0.41 ± 0.12", "unit": "%"}, {"measurement": "Blood % tail intensity mean ± SD", "setting": "[1]; [12]", "result": "0.34 ± 0.07", "unit": "%"}, {"measurement": "Increase in % tail intensity in peripheral blood cells versus vehicle", "setting": "[1]; 3-Day Study, at 1,000 mg/kg/day, not considered biologically relevant", "result": "up to 1.6 fold"}, {"measurement": "%MN‐RETs mean ± SD", "setting": "[2]; [13]", "result": "0.14 ± 0.03", "unit": "%"}, {"measurement": "%RETs mean ± SD", "setting": "[2]; [13]", "result": "2.89 ± 1.89", "unit": "%"}, {"measurement": "%MN‐RETs mean ± SD", "setting": "[2]; [7]", "result": "0.15 ± 0.05", "unit": "%"}, {"measurement": "%RETs mean ± SD", "setting": "[2]; [7]", "result": "1.32 ± 0.25", "unit": "%"}, {"measurement": "%MN‐RETs mean ± SD", "setting": "[2]; [14]", "result": "0.18 ± 0.07", "unit": "%"}, {"measurement": "%RETs mean ± SD", "setting": "[2]; [14]", "result": "1.80 ± 1.98", "unit": "%"}, {"measurement": "%MN‐RETs mean ± SD", "setting": "[2]; [8]", "result": "0.22 ± 0.04^ %"}, {"measurement": "%RETs mean ± SD", "setting": "[2]; [8]", "result": "1.03 ± 0.28", "unit": "%"}, {"measurement": "%RETs mean ± SD", "setting": "[2]; 1-Month Study, 1,000 mg/kg/day, Day 4", "result": "0.03 ± 0.02", "unit": "%"}, {"measurement": "%MN‐RETs mean ± SD", "setting": "[2]; [9]", "result": "0.59 ± 0.23^ %"}, {"measurement": "%RETs mean ± SD", "setting": "[2]; [9]", "result": "1.48 ± 1.05", "unit": "%"}, {"measurement": "%MN‐RETs mean ± SD", "setting": "[2]; [15]", "result": "0.12 ± 0.05", "unit": "%"}, {"measurement": "%RETs mean ± SD", "setting": "[2]; [15]", "result": "0.89 ± 0.68", "unit": "%"}, {"measurement": "%RETs mean ± SD", "setting": "[2]; 3-Day Study, 1,000 mg/kg/day, Day 4", "result": "0.08 ± 0.08", "unit": "%"}, {"measurement": "%MN‐RETs mean ± SD", "setting": "[2]; 3-Day Study, 1,000 mg/kg/day, Day 4, only 1 animal analyzed", "result": "0.21 ^a %"}, {"measurement": "%RETs mean ± SD", "setting": "[2]; 3-Day Study, 2,000 mg/kg/day, Day 4", "result": "0.03 ± 0.04", "unit": "%"}, {"measurement": "Micronucleus endpoint in peripheral blood RETs (conclusion)", "setting": "[2]; [16]", "result": "negative"}, {"measurement": "Rats with minimal remnants of treatment‐related liver changes", "setting": "[3]; after 1-month recovery period", "result": "2/6"}, {"measurement": "Rats with minimal to slight liver changes in the centrilobular region", "setting": "[3]; after 1 month", "result": "9/16"}, {"measurement": "Rats with minimal to slight liver changes in the centrilobular region", "setting": "[3]; after 1 week", "result": "5/5"}, {"measurement": "Liver % tail intensity mean ± SD", "setting": "[4]; [7]", "result": "0.20 ± 0.11", "unit": "%"}, {"measurement": "Liver % tail intensity mean ± SD", "setting": "[4]; [8]", "result": "0.18 ± 0.06", "unit": "%"}, {"measurement": "Liver % tail intensity mean ± SD", "setting": "[4]; [9]", "result": "0.34 ± 0.25", "unit": "%"}, {"measurement": "Liver % tail intensity mean ± SD", "setting": "[4]; [10]", "result": "0.22 ± 0.09", "unit": "%"}, {"measurement": "Liver % tail intensity mean ± SD", "setting": "[4]; [11]", "result": "0.27 ± 0.10", "unit": "%"}, {"measurement": "Liver % tail intensity mean ± SD", "setting": "[4]; [12]", "result": "0.28 ± 0.07", "unit": "%"}, {"measurement": "Comet endpoint in peripheral blood cells and liver cells (conclusion)", "setting": "[4]; [16]", "result": "negative"}, {"measurement": "Mutagenicity", "setting": "[5]", "result": "nonmutagenic"}, {"measurement": "%RETs mean ± SD", "setting": "[6]; [17]", "result": "3.7 ± 0.7", "unit": "%"}, {"measurement": "Number of CD59‐Neg RBCs per 10^6 RBCs mean ± SD", "setting": "[6]; [17]", "result": "0.6 ± 0.4", "unit": "per 10^6 RBCs"}, {"measurement": "Number of CD59‐Neg RETs per 10^6 RETs mean ± SD", "setting": "[6]; [17]", "result": "1.8 ± 2.8", "unit": "per 10^6 RETs"}, {"measurement": "%RETs mean ± SD", "setting": "[6]; [7]", "result": "2.9 ± 0.4", "unit": "%"}, {"measurement": "Number of CD59‐Neg RBCs per 10^6 RBCs mean ± SD", "setting": "[6]; [7]", "result": "0.9 ± 0.3", "unit": "per 10^6 RBCs"}, {"measurement": "Number of CD59‐Neg RETs per 10^6 RETs mean ± SD", "setting": "[6]; [7]", "result": "3.0 ± 2.2", "unit": "per 10^6 RETs"}, {"measurement": "%RETs mean ± SD", "setting": "[6]; [18]", "result": "5.2 ± 0.6", "unit": "%"}, {"measurement": "Number of CD59‐Neg RBCs per 10^6 RBCs mean ± SD", "setting": "[6]; [18]", "result": "0.7 ± 0.8", "unit": "per 10^6 RBCs"}, {"measurement": "Number of CD59‐Neg RETs per 10^6 RETs mean ± SD", "setting": "[6]; [18]", "result": "0.6 ± 0.6", "unit": "per 10^6 RETs"}, {"measurement": "%RETs mean ± SD", "setting": "[6]; [19]", "result": "3.2 ± 0.5", "unit": "%"}, {"measurement": "Number of CD59‐Neg RBCs per 10^6 RBCs mean ± SD", "setting": "[6]; [19]", "result": "0.3 ± 0.2", "unit": "per 10^6 RBCs"}, {"measurement": "Number of CD59‐Neg RETs per 10^6 RETs mean ± SD", "setting": "[6]; [19]", "result": "1.0 ± 1.0", "unit": "per 10^6 RETs"}, {"measurement": "%RETs mean ± SD", "setting": "[6]; [8]", "result": "2.0 ± 0.4", "unit": "%"}, {"measurement": "Number of CD59‐Neg RBCs per 10^6 RBCs mean ± SD", "setting": "[6]; [8]", "result": "0.5 ± 0.1", "unit": "per 10^6 RBCs"}, {"measurement": "Number of CD59‐Neg RETs per 10^6 RETs mean ± SD", "setting": "[6]; [8]", "result": "1.7 ± 1.9", "unit": "per 10^6 RETs"}, {"measurement": "%RETs mean ± SD", "setting": "[6]; [20]", "result": "5.5 ± 1.3", "unit": "%"}, {"measurement": "Number of CD59‐Neg RBCs per 10^6 RBCs mean ± SD", "setting": "[6]; [20]", "result": "0.3 ± 0.1", "unit": "per 10^6 RBCs"}, {"measurement": "Number of CD59‐Neg RETs per 10^6 RETs mean ± SD", "setting": "[6]; [20]", "result": "0.6 ± 0.7", "unit": "per 10^6 RETs"}, {"measurement": "%RETs mean ± SD", "setting": "[6]; [21]", "result": "2.8 ± 0.6", "unit": "%"}, {"measurement": "Number of CD59‐Neg RBCs per 10^6 RBCs mean ± SD", "setting": "[6]; [21]", "result": "0.9 ± 0.5", "unit": "per 10^6 RBCs"}]}]}
